Reference: patent US20200068887A1, “TREATMENT FOR REMOVING ECTOPARASITES FROM FISH” (priority 2016, published 2020)

Legend:
Type in all cases: in vivo
Lepeophtheirus salmonis [1] = test: Immersion treatment of sea lice challenged salmon with 10, 30 and 50 ppm imidacloprid; details: for Abundance (and range) of adult female lice / Abundance (and range) of adult male lice / Abundance (and range) of ovigerous females / Mean abundance (and range) or all lice stages / Prevalence: lice counted week 8
Source text: Eight flow-through treatment tanks each containing 15 fish were set up. The fish were Salmon (Salmo salar) having an average weight of approximately 270 g and of mixed sex. Egg strings removed from ovigerous female Lepeophtheirus salmonis were collected and cultured until infective copepodids were produced. Eight bottles containing approximately 330-350 copepodids were each randomly allocated to a treatment tank (to provide an average of 22 lice per fish).
In preparation for the challenge, water flows in the tanks were stopped and light levels reduced. The lice were then added to each tank and the tanks maintained in total darkness for 6 hours after which light levels were raised and the water flow resumed.
The fish were challenged with sea lice for either one week or for six weeks.
One week after the sea lice challenge, fish in three of the tanks were treated with either 10 ppm w/v, 30 ppm w/v or 50 ppm w/v imidacloprid. One of the tanks was treated with 0.03% DMSO and another tank sham treated with sea water as controls.
For each treatment tank, the appropriate amount of imidacloprid (see Table 1) was dissolved in 100 ml of DMSO and mixed with approximately 900 ml of sea water from the experimental tank to obtain a treatment solution. The water flow on the experimental tanks was disabled and the treatment solution was then added.
Fish were exposed for 60 minutes in static water with full aeration and observed during the exposure period. At the end of the exposure period the water was rapidly drained to approximately ⅓ volume, before the flows were resumed in the tanks
Six weeks after the fish were challenged with sea lice, the fish in the three remaining treatment tanks were treated with either 10 ppm w/v, 30 ppm w/v or 50 ppm w/v imidacloprid. The treatment was carried out in the same way as for the treatment tanks one week post challenge (see 1.2.1).
Eight weeks after the fish were challenged with sea lice, the study was terminated. Fish were over anaesthetised in MS222 (tricaine methanesulfonate) and pithed using an Iki Jime tool. The length and weight of each fish and external symptoms were recorded. All lice were removed from each fish and note made of sex and stage of development. The lice were stored in ethanol and sex and stage confirmed using stereo microscope.
The data is expressed as prevalence and abundance. Prevalence is defined as the number of hosts infected with one of more individuals of a parasite species divided by the number of hosts examined (including infected and uninfected hosts) and expressed as a percentage.

Lepeophtheirus salmonis [2] = test: Sea lice recovery in clean seawater after exposure; details: any concentration (10-25 mg/l), post-exposure period up to 6 hours
Protocol: Imidacloprid exposed parasites from both the relative efficacy and rate determination studies (both those removed manually from their host post-treatment and those that detached during treatment) were immersed into clean seawater and observed for signs of recovery.
At the time of the first observation, exposed individuals were determined to be either dead or still active. Of those still active, muscular excitation was uncoordinated, uncontrolled and limited.

L. salmonis = test: Field well boat treatment, pre- vs post-treatment sea lice counts; details: 20 ppm 60 min on well boat, within 24 hours after treatment, 30 fish per pen; pens A-D
Protocol: The effectiveness of imidacloprid against pre-adult and adult stages of L. salmonis and Caligus sp. infections on farmed Atlantic salmon was investigated by performing pre- and post-treatment sea lice counts on salmon undergoing a treatment with imidacloprid. This trial was conducted at a commercial salmon farm in Norway. The salmon were pumped onto a well boat and were exposed to 20 ppm imidacloprid for 60 minutes. The average weight of the salmon was 3.5 kg and the average number of salmon per pen was 180,000. 30 fish per pen were assessed for L. salmonis and Caligus sp., and the number of each L. salmonis life stage found was recorded. This was performed within 24 hours prior to treatment, and within 24 hours after treatment.
These assessments were made on four pens of salmon in total. Prior to treatment, fish were crowded within the pen to enable them to be pumped into the well boat, which is where the pre-treatment sea lice assessments were conducted. The post-treatment sea lice assessments were made by removing fish from the outflow pipe on the well boat.
At all time points, 3 fish were removed and placed into an anaesthetic bath. This was repeated 10 times until 30 fish had been assessed.
The numbers of sea lice observed per fish for this trial for each of the four tested pens according to sea lice life cycle state, pre- or post-administration of active are presented in Table 5.

[3] = 10 ppm w/v 60 min, treated 1 week post challenge
[4] = 10 ppm w/v 60 min, treated 6 weeks post challenge
[5] = 30 ppm w/v 60 min, treated 1 week post challenge
[6] = 30 ppm w/v 60 min, treated 6 weeks post challenge
[7] = 50 ppm w/v 60 min, treated 1 week post challenge, two fish removed from group
[8] = 50 ppm w/v 60 min, treated 6 weeks post challenge

## O=[N+]([O-])NC1=NCCN1Cc1ccc(Cl)nc1 [imidacloprid]
Lepeophtheirus salmonis [1]; 10, 30 or 50 ppm w/v, treated one week post challenge, examined week 8
  prevalence of infection of all lice stages versus the two control groups: not considered to differ
Lepeophtheirus salmonis [1]; [3]
  Abundance (and range) of adult female lice: 0.067 (0-1)
  Abundance (and range) of adult male lice: 0.87 (0-2)
  Abundance (and range) of ovigerous females: 1.47 (0-3)
  Mean abundance (and range) or all lice stages: 2.4 (1-5)
  Prevalence: 100%
Lepeophtheirus salmonis [1]; [4]
  Abundance (and range) of adult female lice: 0
  Abundance (and range) of adult male lice: 0
  Abundance (and range) of ovigerous females: 0
  Mean abundance (and range) or all lice stages: 0
  Prevalence: 0%
Lepeophtheirus salmonis [1]; 10 ppm w/v, 6 weeks post challenge, 54 minutes after addition
  infected fish (each with a single ovigerous female): 2 fish
Lepeophtheirus salmonis [1]; 10 ppm w/v, 6 weeks post challenge, 91 minutes after addition, louse stayed at least five days
  lice remaining on fish: a single male louse was observed on the head of its host
Lepeophtheirus salmonis [1]; 10 ppm w/v, 6 weeks post challenge, first 19 minutes after addition
  lice observed in the water column: Lice were not observed in the water column
Lepeophtheirus salmonis [1]; [5]
  Abundance (and range) of adult female lice: 0 (0-0)
  Abundance (and range) of adult male lice: 0.8 (0-1)
  Abundance (and range) of ovigerous females: 1.4 (0-3)
  Mean abundance (and range) or all lice stages: 2.2 (0-4)
  Prevalence: 93.33%
Lepeophtheirus salmonis [1]; [6]
  Abundance (and range) of adult female lice: 0
  Abundance (and range) of adult male lice: 0
  Abundance (and range) of ovigerous females: 0
  Mean abundance (and range) or all lice stages: 0
  Prevalence: 0%
Lepeophtheirus salmonis [1]; 30 ppm w/v, 6 weeks post challenge, 6 minutes after the 78 minute observation
  lice on the fish with re-attached lice: no lice were observed on these fish
Lepeophtheirus salmonis [1]; 30 ppm w/v, 6 weeks post challenge, 10 minutes after addition
  lice observed in the water column: 1-2 lice
Lepeophtheirus salmonis [1]; 30 ppm w/v, 6 weeks post challenge, 18 minutes after addition
  lice present in the water column: approximately 10 lice
Lepeophtheirus salmonis [1]; 30 ppm w/v, 6 weeks post challenge, 25 minutes after addition
  lice noted in the water: approximately 20 lice
Lepeophtheirus salmonis [1]; 30 ppm w/v, 6 weeks post challenge, 25 minutes after addition, 15 fish per tank
  fish appearing infected (estimated 1-2 lice per fish): less than 6 fish
Lepeophtheirus salmonis [1]; 30 ppm w/v, 6 weeks post challenge, 33 minutes after addition
  infection status of fish: most fish were considered to be negative for any lice infections
Lepeophtheirus salmonis [1]; 30 ppm w/v, 6 weeks post challenge, 47 minutes after addition
  fish appearing infected (each with a single louse): 3 fish
Lepeophtheirus salmonis [1]; 30 ppm w/v, 6 weeks post challenge, 59 minutes after addition
  infection status of fish: no fish were visibly infected with lice
Lepeophtheirus salmonis [1]; 30 ppm w/v, 6 weeks post challenge, 78 minutes after addition
  fish with re-attached louse (1 louse each): 4 fish
Lepeophtheirus salmonis [1]; 30 ppm w/v, two days post-treatment
  lesions associated with feeding and attachment of lice: almost completely resolved
Lepeophtheirus salmonis [1]; [7]
  Abundance (and range) of adult male lice: 1.23 (0-3)
  Abundance (and range) of ovigerous females: 1.69 (0-5)
Lepeophtheirus salmonis [1]; [8]
  Abundance (and range) of adult female lice: 0
  Abundance (and range) of adult male lice: 0
  Abundance (and range) of ovigerous females: 0
  Mean abundance (and range) or all lice stages: 0
  Prevalence: 0%
Lepeophtheirus salmonis [1]; 50 ppm w/v, 6 weeks post challenge, 44 minutes after addition, 15 fish per tank
  fish noted as infected (each with a single louse): five
Lepeophtheirus salmonis [1]; 50 ppm w/v, 6 weeks post challenge, 53 minutes after addition
  fish with a single louse infection: 2-3 fish
Lepeophtheirus salmonis [1]; 50 ppm w/v, 6 weeks post challenge, 58 minutes after addition
  lice remaining on fish: only one louse was apparent on a single fish
Lepeophtheirus salmonis [1]; 50 ppm w/v, 6 weeks post challenge, 81 minutes after addition
  lice remaining on fish: no lice were visible on the fish
Lepeophtheirus salmonis [1]; 50 ppm w/v, 6 weeks post challenge, after 12 minutes
  lice detached from the host, free in the water column: approximately 10 lice
Lepeophtheirus salmonis [1]; 50 ppm w/v, 6 weeks post challenge, after 18 minutes
  lice observed in the water column: approximately 20 lice
Lepeophtheirus salmonis [1]; 50 ppm w/v, 6 weeks post challenge, between 2 and 6 minutes after addition
  lice observed in the water column: No lice were observed
Lepeophtheirus salmonis [1]; 50 ppm w/v, two days post treatment
  lesions associated with feeding and attachment of lice: almost completely resolved
Lepeophtheirus salmonis [1]; all treatment doses (10, 30, 50 ppm w/v), treated six weeks after challenge
  effectiveness against motile parasitic stages of lice: 100%
Lepeophtheirus salmonis [1]; treated one week post challenge
  overall lice abundances compared with the DMSO control: No significant differences
Lepeophtheirus salmonis [2]
  functional recovery of exposed parasites in clean seawater: no clear signs of functional recovery
L. salmonis
  sea lice per fish, Adult Female, Post: 0.0
  sea lice per fish, Adult Male, Post: 0.0
  sea lice per fish, Gravid Female, Post: 0.0
  sea lice per fish, Pre-Adult Female, Post: 0.0
  sea lice per fish, Pre-Adult Male, Post: 0.0
  sea lice per fish, Total, Post: 0.0
